Experimental data taken from paper PMC12211128, “Safety, tolerability, pharmacokinetic and pharmacodynamic effects of the muscarinic M1 positive allosteric modulator VU0467319 for Alzheimer’s disease: a single ascending-dose study in healthy participants” (Alzheimer's Research & Therapy, 2025).

Test system: healthy participants
Assay: Spatial selective attention test (SSAT)
Format: in vivo, human
Conditions: for SSAT Alerting Cost / SSAT Reorienting Cost: mean (SD)
From the text: A version of the spatial selective attention test (SSAT; [33]) was used to assess the ability of participants to disengage attention and shift to a new target. Participants were asked to press a button corresponding to the side of the screen on which a stimulus appeared. The outcome variables of the task are the reaction time effects related to the ability of participants to anticipate a target when there is an ambiguous cue compared to there being no cue at all (Alerting effect: no cue– neutral cue); and the ability of participants to shift their attention between congruent and incongruent stimuli (Reorienting effect: invalid cue– valid cue).
Cognitive data: In this exploratory analysis, each outcome variable of the cognitive data was examined in a mixed model analysis of variance with one between-subjects factor of VU319 dose (0, 60, 120, 240, 400, 600 mg) and a within-subjects factor of testing session (pre-dose vs. post-dost administration). Post-hoc analysis compared each of the VU319 dose cohorts against the placebo group. Because the participants were healthy adults with normal cognitive function, we considered effects between no reductions in function to small improvement (d = 0.0–0.20) to be a positive result. For the food effect study, only the participants who received VU319 were examined due to the disproportionately small placebo group (n = 2). A within-subjects ANOVA including food condition (fasted/fed) and testing session (pre-dose vs. post-dose administration) was performed on each outcome variable.
A version of the spatial selective attention test (SSAT; (Posner, 1980)) was used to assess the ability of participants to disengage attention and shift to a new target. Participants were asked to press a button corresponding to the side of the screen on which a stimulus appeared. A central diamond was placed in between serving as a fixation point. Cues consisted of a 200-ms darkening of one side of the diamond depicting an arrowhead pointing to one of the peripheral boxes. The cue was followed by a target appearing for 100-ms in one of the boxes. To prevent temporal orienting, we used two randomly occurring cue–target intervals (400 and 700-ms). The targets were black diamonds that appeared in either the left or right boxes. In most trials, the cue validly predicted the target, however some cues were invalid, that is they pointed in the opposite direction of the target. On some trials, both sides of the diamond darkened, resulting in an ambiguous or neutral cue in which the participants were not able to prepare a specific hand to respond. […] The task consisted of 112 trials, with 64 trials (57%) with valid cues, and 16 trials (14.3%) each for the invalid, neutral or no cues conditions. The outcome variables of the task are the reaction time effects related to the ability of participants to anticipate a target when there is an ambiguous cue compared to there being no cue at all (Alerting effect: no cue – neutral cue); and the ability of participants to shift their attention between congruent and incongruent stimuli (Reorienting effect: invalid cue – valid cue).

[1] = Food effect study 120 mg, Fasting, Post-Drug
[2] = Food effect study 120 mg, Fasting, Pre-Drug
[3] = Food effect study 120 mg, Fed, Post-Drug
[4] = Food effect study 120 mg, Fed, Pre-Drug

**Q.** For `Cn1cc2c(-c3cc(F)c(CN4Cc5ncccc5C4=O)c(F)c3)cccc2n1` [VU319], which “SSAT Alerting Cost” value [1] is on record?
**A.** 25.8 (59.97) ms

**Q.** And the “SSAT Reorienting Cost” value [1]?
**A.** 49.55 (35.68) ms

**Q.** What about the “SSAT Alerting Cost” value [2] of the same compound?
**A.** 60.4 (53.4) ms

**Q.** And the “SSAT Reorienting Cost” value [2]?
**A.** 52.15 (24.83) ms

**Q.** What about the “SSAT Alerting Cost” value [3] of the same compound?
**A.** 113.15 (181.48) ms

**Q.** What about the “SSAT Reorienting Cost” value [3] of the same compound?
**A.** 49.45 (32.65) ms

**Q.** What about the “SSAT Alerting Cost” value [4] of the same compound?
**A.** 54.1 (45.3) ms

**Q.** And the “SSAT Reorienting Cost” value [4]?
**A.** 56.75 (38.19) ms

**Q.** And the “SSAT Alerting Cost” value (SAD study, 60 mg, Post-Drug)?
**A.** 59.58 (43) ms

**Q.** What about the “SSAT Reorienting Cost” value (SAD study, 60 mg, Post-Drug) of the same compound?
**A.** 55.25 (34.49) ms

**Q.** And the “SSAT Alerting Cost” value (SAD study, 60 mg, Pre-Drug)?
**A.** 53.67 (39.48) ms

**Q.** And the “SSAT Reorienting Cost” value (SAD study, 60 mg, Pre-Drug)?
**A.** 43.58 (31.92) ms

**Q.** What about the “SSAT Alerting Cost” value (SAD study, 120 mg, Post-Drug) of the same compound?
**A.** 44.25 (22.86) ms

**Q.** And the “SSAT Reorienting Cost” value (SAD study, 120 mg, Post-Drug)?
**A.** 20.33 (32.95) ms

**Q.** And the “SSAT Alerting Cost” value (SAD study, 120 mg, Pre-Drug)?
**A.** 62.75 (45) ms

**Q.** What about the “SSAT Reorienting Cost” value (SAD study, 120 mg, Pre-Drug) of the same compound?
**A.** 10.17 (18.88) ms

**Q.** And the “SSAT Alerting Cost” value (SAD study, 240 mg, Post-Drug)?
**A.** 58.83 (38.04) ms

**Q.** And the “SSAT Reorienting Cost” value (SAD study, 240 mg, Post-Drug)?
**A.** 39.67 (33.04) ms

**Q.** What about the “SSAT Alerting Cost” value (SAD study, 240 mg, Pre-Drug) of the same compound?
**A.** 34.83 (27.3) ms

**Q.** What about the “SSAT Reorienting Cost” value (SAD study, 240 mg, Pre-Drug) of the same compound?
**A.** 27.92 (29.28) ms

**Q.** And the “SSAT Alerting Cost” value (SAD study, 400 mg, Post-Drug)?
**A.** 44.92 (26.61) ms

**Q.** What about the “SSAT Reorienting Cost” value (SAD study, 400 mg, Post-Drug) of the same compound?
**A.** 31.25 (18.61) ms

**Q.** What about the “SSAT Alerting Cost” value (SAD study, 400 mg, Pre-Drug) of the same compound?
**A.** 59.75 (24.51) ms

**Q.** And the “SSAT Reorienting Cost” value (SAD study, 400 mg, Pre-Drug)?
**A.** 22.17 (25) ms

**Q.** What about the “SSAT Alerting Cost” value (SAD study, 600 mg, Post-Drug) of the same compound?
**A.** 19.5 (41.26) ms

**Q.** What about the “SSAT Reorienting Cost” value (SAD study, 600 mg, Post-Drug) of the same compound?
**A.** 31.33 (15.75) ms

**Q.** What about the “SSAT Alerting Cost” value (SAD study, 600 mg, Pre-Drug) of the same compound?
**A.** 26.08 (37.44) ms

**Q.** What about the “SSAT Reorienting Cost” value (SAD study, 600 mg, Pre-Drug) of the same compound?
**A.** 20.92 (11.57) ms

**Q.** What about the “SSAT reorienting effect, effect of dose” value (SAD study, both p > 0.3) of the same compound?
**A.** no effect of dose, nor a dose by time interaction

**Q.** What about the “SSAT, effect of food condition or time” value (food effect study, 120 mg) of the same compound?
**A.** no effect of either food condition or time
